Assay results as given in patent US6914045B2, “Glycopeptide antibiotics” (Wyeth Holdings Corporation, priority 2001, dated 2005).
Converted amounts (≈) assume the structure as drawn.

Columns and labels:
Experiment in all cases: in vitro antibacterial evaluation, MIC by broth dilution
Type in all cases: cell-based
Enterococcus sp. = settings: broth dilution, 18 hours at 35° C.
In short: (§1)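 Following National Committee for Clinical Laboratory Standards recommendations (M7-A2), susceptibility was measured by dilution in Muller-Hinton II […]. Bacteria were seeded at 5×10^5 CFU/mL against compound concentrations from 64 down to 0.06 μg/mL.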

Staphylococcus sp. = settings: broth dilution, 18 hours at 35° C.
In short: as §1

Streptococcus sp. = settings: broth dilution, 18 hours at 35° C.
In short: as §1

Escherichia coli = settings: 18 hours at 35° C.

MIC Enterococcus avium (GC 4558) (Enterococcus sp.): 4 µg/mL (≈ 2.69 µM)
MIC Enterococcus faecalis (ATCC 29212) (Enterococcus sp.): 4 µg/mL (≈ 2.69 µM)
MIC Enterococcus faecalis (GC 2242) (Enterococcus sp.): 4 µg/mL (≈ 2.69 µM)
MIC Enterococcus faecalis (GC 2691) (Enterococcus sp.): 4 µg/mL (≈ 2.69 µM)
MIC Enterococcus faecalis (GC 3059) (Enterococcus sp.): 2 µg/mL (≈ 1.34 µM)
MIC Enterococcus faecalis (GC 4552) (Enterococcus sp.): 4 µg/mL (≈ 2.69 µM)
MIC Enterococcus faecalis (GC 4553) (Enterococcus sp.): 4 µg/mL (≈ 2.69 µM)
MIC Enterococcus faecalis (GC 4554) (Enterococcus sp.): 4 µg/mL (≈ 2.69 µM)
MIC Enterococcus faecalis (GC 6189) (Enterococcus sp.): 2 µg/mL (≈ 1.34 µM)
MIC Enterococcus faecium (GC 2243) (Enterococcus sp.): 4 µg/mL (≈ 2.69 µM)
MIC Enterococcus faecium (GC 4556) (Enterococcus sp.): 4 µg/mL (≈ 2.69 µM)
MIC Enterococcus faecium (GC 4557) (Enterococcus sp.): 2 µg/mL (≈ 1.34 µM)
MIC Enterococcus faecalis (ATCC 29212) (Enterococcus sp.; strain ATCC 29212): 4 µg/mL (≈ 2.69 µM)
MIC Enterococcus faecium (GC 2243) (Enterococcus sp.; strain GC 2243): 4 µg/mL (≈ 2.69 µM)
MIC Enterococcus faecalis (GC 4552) (Enterococcus sp.; strain GC 4552): 4 µg/mL (≈ 2.69 µM)
MIC Enterococcus faecalis (GC 4553) (Enterococcus sp.; strain GC 4553): 4 µg/mL (≈ 2.69 µM)
MIC Enterococcus faecalis (GC 4554) (Enterococcus sp.; strain GC 4554): 4 µg/mL (≈ 2.69 µM)
MIC Enterococcus faecium (GC 4556) (Enterococcus sp.; strain GC 4556): 4 µg/mL (≈ 2.69 µM)
MIC Enterococcus faecium (GC 4557) (Enterococcus sp.; strain GC 4557): 2 µg/mL (≈ 1.34 µM)
MIC Enterococcus avium (GC 4558) (Enterococcus sp.; strain GC 4558): 4 µg/mL (≈ 2.69 µM)
MIC Enterococcus faecalis (GC 6189) (Enterococcus sp.; strain GC 6189): 2 µg/mL (≈ 1.34 µM)
MIC Enterococcus faecalis (GC 2242) (Enterococcus sp.; inoculum 5×10^5 CFU/mL, strain GC 2242): 4 µg/mL (≈ 2.69 µM)
MIC Enterococcus faecalis (GC 2691) (Enterococcus sp.; inoculum 5×10^5 CFU/mL, strain GC 2691): 4 µg/mL (≈ 2.69 µM)
MIC Enterococcus faecalis (GC 3059) (Enterococcus sp.; inoculum 5×10^5 CFU/mL, strain GC 3059): 2 µg/mL (≈ 1.34 µM)
MIC Coagulase Negative Staphylococcus (GC 4547) (Staphylococcus sp.): 2 µg/mL (≈ 1.34 µM)
MIC Coagulase Negative Staphylococcus (GC 4548) (Staphylococcus sp.): 1 µg/mL (≈ 0.672 µM)
MIC Coagulase Negative Staphylococcus (GC 4549) (Staphylococcus sp.): 2 µg/mL (≈ 1.34 µM)
MIC Coagulase Negative Staphylococcus (GC 4551) (Staphylococcus sp.): 4 µg/mL (≈ 2.69 µM)
MIC Coagulase Negative Staphylococcus (GC 6257) (Staphylococcus sp.): 2 µg/mL (≈ 1.34 µM)
MIC Staphylococcus aureus (ATCC 29213) (Staphylococcus sp.): 2 µg/mL (≈ 1.34 µM)
MIC Staphylococcus aureus (GC 1131) (Staphylococcus sp.): 2 µg/mL (≈ 1.34 µM)
MIC Staphylococcus aureus (GC 3051) (Staphylococcus sp.): 2 µg/mL (≈ 1.34 µM)
MIC Staphylococcus aureus (GC 3053) (Staphylococcus sp.): 2 µg/mL (≈ 1.34 µM)
MIC Staphylococcus aureus (GC 4541) (Staphylococcus sp.): 2 µg/mL (≈ 1.34 µM)
MIC Staphylococcus aureus (GC 4542) (Staphylococcus sp.): 2 µg/mL (≈ 1.34 µM)
MIC Staphylococcus aureus (GC 4544) (Staphylococcus sp.): 2 µg/mL (≈ 1.34 µM)
MIC Staphylococcus aureus (GC 4545) (Staphylococcus sp.): 2 µg/mL (≈ 1.34 µM)
MIC Staphylococcus aureus-SMITH (GC 4543) (Staphylococcus sp.): 2 µg/mL (≈ 1.34 µM)
MIC Staphylococcus aureus (ATCC 29213) (Staphylococcus sp.; strain ATCC 29213): 2 µg/mL (≈ 1.34 µM)
MIC Staphylococcus aureus (GC 1131) (Staphylococcus sp.; strain GC 1131): 2 µg/mL (≈ 1.34 µM)
MIC Staphylococcus aureus (GC 3051) (Staphylococcus sp.; strain GC 3051): 2 µg/mL (≈ 1.34 µM)
MIC Staphylococcus aureus (GC 3053) (Staphylococcus sp.; strain GC 3053): 2 µg/mL (≈ 1.34 µM)
MIC Staphylococcus aureus (GC 4541) (Staphylococcus sp.; strain GC 4541): 2 µg/mL (≈ 1.34 µM)
MIC Staphylococcus aureus (GC 4542) (Staphylococcus sp.; strain GC 4542): 2 µg/mL (≈ 1.34 µM)
MIC Staphylococcus aureus-SMITH (GC 4543) (Staphylococcus sp.; strain GC 4543): 2 µg/mL (≈ 1.34 µM)
MIC Staphylococcus aureus (GC 4544) (Staphylococcus sp.; strain GC 4544): 2 µg/mL (≈ 1.34 µM)
MIC Staphylococcus aureus (GC 4545) (Staphylococcus sp.; strain GC 4545): 2 µg/mL (≈ 1.34 µM)
MIC Coagulase Negative Staphylococcus (GC 4547) (Staphylococcus sp.; strain GC 4547): 2 µg/mL (≈ 1.34 µM)
MIC Coagulase Negative Staphylococcus (GC 4548) (Staphylococcus sp.; strain GC 4548): 1 µg/mL (≈ 0.672 µM)
MIC Coagulase Negative Staphylococcus (GC 4549) (Staphylococcus sp.; strain GC 4549): 2 µg/mL (≈ 1.34 µM)
MIC Coagulase Negative Staphylococcus (GC 4551) (Staphylococcus sp.; strain GC 4551): 4 µg/mL (≈ 2.69 µM)
MIC Coagulase Negative Staphylococcus (GC 6257) (Staphylococcus sp.; strain GC 6257): 2 µg/mL (≈ 1.34 µM)
MIC Streptococcus agalactiae (GC 4564) (Streptococcus sp.): <0.06 µg/mL
MIC Streptococcus pneumoniae (ATCC 6301) (Streptococcus sp.): <0.06 µg/mL
MIC Streptococcus pneumoniae (GC 1894) (Streptococcus sp.): <0.06 µg/mL
MIC Streptococcus pneumoniae (GC 4565) (Streptococcus sp.): <0.06 µg/mL
MIC Streptococcus pyogenes (GC 4563) (Streptococcus sp.): <0.06 µg/mL
MIC Streptococcus pneumoniae (ATCC 6301) (Streptococcus sp.; inoculum 5×10^5 CFU/mL, strain ATCC 6301): <0.06 µg/mL
MIC Streptococcus pneumoniae (GC 1894) (Streptococcus sp.; inoculum 5×10^5 CFU/mL, strain GC 1894): <0.06 µg/mL
MIC Streptococcus pyogenes (GC 4563) (Streptococcus sp.; inoculum 5×10^5 CFU/mL, strain GC 4563): <0.06 µg/mL
MIC Streptococcus agalactiae (GC 4564) (Streptococcus sp.; inoculum 5×10^5 CFU/mL, strain GC 4564): <0.06 µg/mL
MIC Streptococcus pneumoniae (GC 4565) (Streptococcus sp.; inoculum 5×10^5 CFU/mL, strain GC 4565): <0.06 µg/mL
MIC Escherichia coli (ATCC 25922) (Escherichia coli): >64 µg/mL
MIC Escherichia coli (GC 4559) (Escherichia coli): >64 µg/mL
MIC Escherichia coli (GC 4560) (Escherichia coli): 2 µg/mL (≈ 1.34 µM)
Structure (SMILES): CC(c1ccccc1)C1NC(=O)CNC(=O)C(CO)NC(=O)C(C(O)C2CNC(=N)N2C2OC(CO)C(O)C(O)C2O)NC(=O)C(C(O)C2CNC(=N)N2)NC(=O)C(Cc2ccc(OC3OC(CO)C(OC4OC(COCC=C(c5ccccc5)c5ccccc5)C(O)C(O)C4O)C(O)C3O)cc2)NC1=O (stereo not shown) [Example 241]
MIC Staphylococcus haemolyticus (GC 4546) (Staphylococcus sp.): 2 µg/mL (≈ 1.34 µM)
MIC Staphylococcus haemolyticus (GC 4546) (Staphylococcus sp.; strain GC 4546): 2 µg/mL (≈ 1.34 µM)
